These results are taken from US20240216589A1, “DRUG DELIVERY COMPOSITIONS AND METHODS OF CONTROLLING DRUG DELIVERY RATES OF SUBCUTANEOUS SENSORS” (ABBOTT DIABETIS CARE INC., priority 2022, published 2024).

A short description of this series: Dex solubility in the polyvinylpyridine-ethanol:water (95:5 by volume) solution. The format is physicochemical. On the procedure: FIG. 33 illustrates the Dex solubility in the polyvinylpyridine-ethanol:water (95:5 by volume) solution according to certain embodiments of the present disclosure. The solubility of Dex in the PVP-ethanol:water solution was measured. For the solutions containing 0 wt %-30 wt % of Dex relative to the weight amount of PVP polymer, after the solutions were vortexed/sonicated within 15 minutes, the solutions became clear. […] Therefore, the drug delivery composition can include up to 40 wt % of Dex relative to the amount of copolymer to make a clear drug delivery composition.

Turning to `C[C@@H]1C[C@H]2[C@@H]3CCC4=CC(=O)C=C[C@]4(C)[C@@]3(F)[C@@H](O)C[C@]2(C)[C@@]1(O)C(=O)CO` [Dex, dexamethasone], the solution clarity entry is reported as “became clear” (0 wt %-30 wt % of Dex relative to PVP, vortexed/sonicated within 15 minutes); “became clear after mixing overnight” (40 wt % of Dex relative to PVP, mixing overnight on the nutator); “did not become clear” (50 wt % of Dex relative to PVP, mixing overnight on the nutator). In addition, under “ethanol:water 95:5 by volume”, the “maximum Dex relative to the amount of copolymer to make a clear drug delivery composition” value is reported as “up to 40 wt %”.
